Laboratory results: PMC6770089, “Interaction Mechanism of Flavonoids and α-Glucosidase: Experimental and Molecular Modelling Studies” (Foods, 2019)
≈ marks a conversion by molar mass, not a printed value.

system: T1, α-glucosidase; assay: intrinsic fluorescence quenching, excitation […] nm; format: binding, Saccharomyces cerevisiae; details: 298 K; double-log; n = 0.9843
T1 construct: gene MAL12; docking used PDB 3A4A (isomaltase IMA1), not the tested protein

| Ka [L/mol] | Structure (SMILES) |
| --- | --- |
| 77786 | O=c1c(O)c(-c2cc(O)c(O)c(O)c2)oc2cc(O)cc(O)c12 [compound 1, myricetin] |

same assay, conditions: 298 K; double-log; n = 1.0572

| Ka [L/mol] | Structure (SMILES) |
| --- | --- |
| 57637 | O=C1c2c(O)cc(O)cc2O[C@H](c2cc(O)c(O)c(O)c2)[C@H]1O [compound 8, dihydromyricetin] |

biological target: T1, α-glucosidase; assay: pNP-G hydrolysis, absorbance […] nm; format: biochemical, Saccharomyces cerevisiae; details: pNP-G (1 mM stock, 1 mL added), 0.1 M phosphate pH 6.8, 37 °C, 10 min preincubation

| IC50 [µg/mL] | Structure (SMILES) |
| --- | --- |
| 2.09 (≈ 6.57 µM) | O=c1c(O)c(-c2cc(O)c(O)c(O)c2)oc2cc(O)cc(O)c12 [compound 1, myricetin] |
| 199.10 (≈ 888 µM) | O=C(/C=C/c1ccccc1)c1ccc(O)cc1 [compound 10, 4′-hydroxychalcone] |
| > 500 | COc1ccc([C@@H]2CC(=O)c3c(O)cc(O[C@@H]4O[C@H](CO[C@@H]5O[C@@H](C)[C@H](O)[C@@H](O)[C@H]5O)[C@@H](O)[C@H](O)[C@H]4O)cc3O2)cc1O [compound 13, hesperidin] |
| 27.22 (≈ 95.1 µM) | O=c1cc(-c2ccc(O)c(O)c2)oc2cc(O)cc(O)c12 [compound 5, luteolin] |
| 6.75 (≈ 25 µM) | O=c1cc(-c2ccccc2)oc2cc(O)c(O)c(O)c12 [compound 4, baicalein] |
| 286.60 (≈ 948 µM) | COc1ccc([C@@H]2CC(=O)c3c(O)cc(O)cc3O2)cc1O [compound 11, hesperetin] |
| 36.29 (≈ 142 µM) | O=C(/C=C/c1ccc(O)cc1)c1ccc(O)cc1O [compound 6, isoliquiritigenin] |
| 70.07 (≈ 276 µM) | O=c1cc(-c2ccccc2)oc2cc(O)cc(O)c12 [compound 7, chrysin] |

The remaining lines, values behind:

| Structure (SMILES) | IC50 [µg/mL] |
| --- | --- |
| C[C@@H]1O[C@@H](O[C@H]2[C@H](Oc3cc(O)c4c(c3)O[C@H](c3ccc(O)cc3)CC4=O)O[C@H](CO)[C@@H](O)[C@@H]2O)[C@H](O)[C@H](O)[C@H]1O [compound 12, naringin] | > 500 |
| O=C(/C=C/c1ccc(O)cc1)c1ccccc1 [compound 9, 4-hydroxychalcone] | 123.04 (≈ 549 µM) |
| O=C(O)[C@H]1O[C@@H](Oc2cc3oc(-c4ccccc4)cc(=O)c3c(O)c2O)[C@H](O)[C@@H](O)[C@@H]1O [compound 14, baicalin] | > 500 |
| O=C1c2c(O)cc(O)cc2O[C@H](c2cc(O)c(O)c(O)c2)[C@H]1O [compound 8, dihydromyricetin] | 85.95 (≈ 268 µM) |
| O=c1c(O)c(-c2ccc(O)c(O)c2)oc2cc(O)ccc12 [compound 2, fisetin] | 5.50 (≈ 19.2 µM) |
